Measured values from the supplement of paper PMC10307832.

Assays:
Test in all cases: relative viability (nuclei count vs DMSO), 5 days (fraction); higher = more cells survive
[1] = compound: CN(C)CC1=CC(=CC=C1)N=C(C2=CC=CC=C2)C3=C(NC4=C3C=CC(=C4)C(=O)N(C)C)O + Nc1ncn([C@H]2C[C@H](O)[C@@H](CO)O2)c(=O)n1 [Decitabine] (partner 2 µM)
Method in brief: (§1)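 Relative viability divides the nuclei count in treated wells by that in vehicle wells. Lung cancer cell lines were seeded in 1536-well plates, dosed by pin tool the next day, and fixed and stained after 5 days in one step with final 0.05% Triton X-100, 1% formaldehyde and 1 ug/ml Hoechst. Dosing was a single drug or a fixed anchor-drug dose plus five library-drug doses (not always all listed) in √10 steps, and values are medians of duplicate plates imaged at 4×.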

[2] = compound: CN(C)CC1=CC(=CC=C1)N=C(C2=CC=CC=C2)C3=C(NC4=C3C=CC(=C4)C(=O)N(C)C)O + Cc1nc(Nc2ncc(C(=O)Nc3c(C)cccc3Cl)s2)cc(N2CCN(CCO)CC2)n1 [Dasatinib] (partner 0.075 µM)
Method in brief: as §1

[3] = compound: CN(C)CC1=CC(=CC=C1)N=C(C2=CC=CC=C2)C3=C(NC4=C3C=CC(=C4)C(=O)N(C)C)O + COc1cc2c(Oc3ccc(NC(=O)C4(C(=O)Nc5ccc(F)cc5)CC4)cc3F)ccnc2cc1OCCCN1CCOCC1 [Foretinib] (partner 0.25 µM)
Method in brief: as §1

[4] = compound: CN(C)CC1=CC(=CC=C1)N=C(C2=CC=CC=C2)C3=C(NC4=C3C=CC(=C4)C(=O)N(C)C)O + CCNC(=O)c1noc(-c2cc(C(C)C)c(O)cc2O)c1-c1ccc(CN2CCOCC2)cc1 [Luminespib] (partner 0.01 µM)
Method in brief: as §1

Row | Cell Line | relative viability ([1]; first compound 0.08 µM) | relative viability ([1]; first compound 0.253 µM) | relative viability ([1]; first compound 0.8 µM) | relative viability ([1]; first compound 2.53 µM) | relative viability ([1]; first compound 8 µM) | relative viability ([2]; first compound 0.08 µM) | relative viability ([2]; first compound 0.253 µM) | relative viability ([2]; first compound 0.8 µM) | relative viability ([2]; first compound 2.53 µM) | relative viability ([2]; first compound 8 µM) | relative viability ([3]; first compound 0.08 µM) | relative viability ([3]; first compound 0.253 µM) | relative viability ([3]; first compound 0.8 µM) | relative viability ([3]; first compound 2.53 µM) | relative viability ([3]; first compound 8 µM) | relative viability ([4]; first compound 0.08 µM) | relative viability ([4]; first compound 0.253 µM) | relative viability ([4]; first compound 0.8 µM) | relative viability ([4]; first compound 2.53 µM) | relative viability ([4]; first compound 8 µM)
1 | NCI-H2023 | 0.258 | 0.216 | 0.221 | 0.195 | 0.232 | 0.538 | 0.549 | 0.576 | 0.445 | 0.466 | 0.766 | 0.731 | 0.785 | 0.737 | 0.602 | 0.75 | 0.75 | 0.769 | 0.577 | 0.483
2 | NCI-H2085 | 0.521 | 0.571 | 0.622 | 0.547 | 0.646 | 0.226 | 0.285 | 0.257 | 0.252 | 0.278 | 1 | 0.865 | 1.15 | 1.13 | 0.954 | 0.591 | 0.533 | 0.477 | 0.527 | 0.404
3 | NCI-H2087 | 0.385 | 0.368 | 0.267 | 0.266 | 0.236 | 0.953 | 0.835 | 0.914 | 0.794 | 0.793 | 1 | 1.07 | 1.19 | 1.09 | 0.955 | 0.164 | 0.197 | 0.232 | 0.167 | 0.172
4 | NCI-H2126 | 0.568 | 0.602 | 0.598 | 0.606 | 0.633 | 0.717 | 0.676 | 0.631 | 0.607 | 0.635 | 1.1 | 1.13 | 1.17 | 1.16 | 1.02 | 0.993 | 0.858 | 0.937 | 0.883 | 0.886
5 | NCI-H2170 | 0.516 | 0.487 | 0.452 | 0.462 | 0.418 | 0.554 | 0.487 | 0.292 | 0.575 | 0.519 | 0.99 | 1.01 | 1.03 | 0.966 | 0.857 | 0.791 | 0.566 | 0.53 | 0.667 | 0.549
6 | NCI-H2342 | 0.728 | 0.74 | 0.817 | 0.798 | 0.848 | 0.281 | 0.399 | 0.287 | 0.329 | 0.338 | 1.08 | 1.06 | 0.979 | 1.17 | 1.05 | 0.775 | 0.597 | 0.71 | 0.771 | 0.871
7 | NCI-H2347 | 0.631 | 0.634 | 0.583 | 0.635 | 0.679 | 0.347 | 0.326 | 0.293 | 0.252 | 0.2 | 0.969 | 1.02 | 0.809 | 1.11 | 1 | 0.355 | 0.444 | 0.34 | 0.383 | 0.298
8 | NCI-H2405 | 0.78 | 0.77 | 0.758 | 0.67 | 0.696 | 0.206 | 0.222 | 0.237 | 0.204 | 0.183 | 1.04 | 1.08 | 1.01 | 0.992 | 1.04 | 0.992 | 0.652 | 0.681 | 0.614 | 0.552
